The values that follow come from US20110098240A1, “PHARMACEUTICAL COMPOSITION COMPRISING A SGLT2 INHIBITOR IN COMBINATION WITH A DPP-IV INHIBITOR” (BOEHRINGER INGELHEIM INTERNATIONAL GMBH, priority 2007, published 2011).

Test [1] is described as follows: oral glucose tolerance test in overnight fasted rats. Conditions: single oral dose 30 min before oral glucose load 2 g/kg; Cpd. A 1 mg/kg, dapagliflozin 0.3 mg/kg, combination at same doses; non-diabetic rats, n=5/group; blood glucose up to 120 min. The format is in vivo, male Sprague Dawley rats (Crl:CD(SD)). The method, then: The following example show the beneficial effect on glycemic control of the combination of a SGLT2 inhibitor and a DPP IV inhibitor according to the present invention as compared to the respective monotherapies. All experimental protocols concerning the use of laboratory animals are reviewed by a federal Ethics Committee and approved by governmental authorities. According to this example an oral glucose tolerance test is performed in overnight fasted male Sprague Dawley rats (Crl:CD(SD)) with a body weight of about 200 g. A pre-dose blood sample is obtained by tail bleed. Blood glucose is measured with a glucometer, and the animals are randomized for blood glucose (n=5/group). Subsequently, the groups receive a single oral administration of either vehicle alone (0.5% aqueous hydroxyethylcellulose containing 0.015% Polysorbat 80) or vehicle containing either the SGLT2 inhibitor or the DPPIV inhibitor or the combination of the SGLT2 inhibitor with the DPPIV inhibitor. The animals receive an oral glucose load (2 g/kg) 30 min after compound administration. Blood glucose is measured in tail blood 30 min, 60 min, 90 min, and 120 min after the glucose challenge. Glucose excursion is quantified by calculating the reactive glucose AUC. The data are presented as mean±S.E.M. Statistical comparisons are conducted by Student's t test.
“Cpd. […]

For test [2] the following is noted: metformin on its own, in the diabetic; cited from earlier work.

Consider `CC#CCn1c(N2CCC[C@@H](N)C2)nc2c1c(=O)n(Cc1nc(C)c3ccccc3n1)c(=O)n2C` [Cpd. A, 1-[(4-methyl-quinazolin-2-yl)methyl]-3-methyl-7-(2-butyn-1-yl)-8-(3-(R)-amino-piperidin-1-yl)-xanthine], for which the “reduction of glucose excursion (reactive glucose AUC)” value in test [1] was determined as 25%.

Regarding `CCOc1ccc(Cc2cc([C@@H]3O[C@H](CO)[C@@H](O)[C@H](O)[C@H]3O)ccc2Cl)cc1` [dapagliflozin, Dapagliflozin], the “reduction of glucose excursion (reactive glucose AUC)” value in test [1] stood at 31%.

Consider `CN(C)C(=N)N=C(N)N` [metformin], for which, in test [2], the “average improvement in the HbA1c value” was 1.0-1.5%.
